Experimental data from ChEMBL document CHEMBL5126543, “Tandem construction of biological relevant aliphatic 5-membered N-heterocycles” (Eur J Med Chem, 2022).
≈ marks a conversion by molar mass, not a printed value. Where a SMILES comes first, the peptide text is derived from it. [ ]: non-standard residue; d: D form. Pro(cis-4-OPh) = O=C(O)[C@@H]1C[C@H](Oc2ccccc2)CN1; Pro(cis-4-CF3) = O=C(O)[C@@H]1C[C@H](C(F)(F)F)CN1; Pro(cis-4-F) = O=C(O)[C@@H]1C[C@H](F)CN1; Pro(4S-NH2) = N[C@@H]1CN[C@H](C(=O)O)C1

What was measured:
SNB-19 = assay: Antiproliferative activity against human SNB-19 cells measured after 72 hrs by WST-1 assay; assay type: functional, cell-based; settings: SNB-19, 72 h
MDA-MB-231 = assay: Antiproliferative activity against human MDA-MB-231 cells measured after 72 hrs by WST-1 assay; assay type: functional, cell-based; settings: MDA-MB-231, 72 h
[1] = Cytotoxicity against HFF-1 cells measured after 72 hrs by WST-1 assay; assay type: toxicity, cell-based; settings: human
C32 = assay: Antiproliferative activity against human C32 cells measured after 72 hrs by WST-1 assay; assay type: functional, cell-based; settings: C32, 72 h
Escherichia coli = assay: Antimicrobial activity against Escherichia coli ATCC 25922 incubated for 18 to 20 hrs; assay type: functional; settings: time 18-20 hrs
Priestia megaterium = assay: Antimicrobial activity against Bacillus megaterium Bm11 incubated for 18 to 20 hrs; assay type: functional; settings: time 18-20 hrs
[2] = system: Staphylococcus epidermidis; assay: Antimicrobial activity against Staphylococcus epidermidis ATCC 12228 incubated for 18 to 20 hrs; assay type: functional; settings: time 18-20 hrs
Pseudomonas aeruginosa = assay: Antimicrobial activity against Pseudomonas aeruginosa ATCC 27853 incubated for 18 to 20 hrs; assay type: functional; settings: time 18-20 hrs
Candida albicans = assay: Antimicrobial activity against Candida albicans ATCC 24433 incubated for 18 to 20 hrs; assay type: functional; settings: time 18-20 hrs
PC-3 = assay: Cytotoxicity against human PC-3 cells treated for 72 hrs by MTT assay; assay type: functional, cell-based; settings: PC-3, 72 h
SK-BR-3 = assay: Cytotoxicity against human SK-BR-3 cells treated for 72 hrs by MTT assay; assay type: functional, cell-based; settings: SK-BR-3, 72 h
A549 = assay: Cytotoxicity against human A549 cells treated for 72 hrs by MTT assay; assay type: functional, cell-based; settings: A549, 72 h
HeLa = assay: Cytotoxicity against human HeLa cells treated for 72 hrs by MTT assay; assay type: functional, cell-based
MCF7 = assay: Cytotoxicity against human MCF7 cells treated for 72 hrs by MTT assay; assay type: functional, cell-based; settings: MCF7, 72 h

| Molecule | IC50 (SNB-19) | IC50 (MDA-MB-231) | IC50 at 72 h [1] | IC50 (C32) | IC50 (PC-3) | IC50 (SK-BR-3) | IC50 (A549) | IC50 (HeLa) | IC50 (MCF7) | further results |
| --- | --- | --- | --- | --- | --- | --- | --- | --- | --- | --- |
| Cn1c(SCC#CCN2CCCCC2)nc2c1c(=O)[nH]c(=O)n2C | 166 µM | 364 µM | 30.4 µM | 355 µM |  |  |  |  |  |  |
| CC[C@H](C)[C@H](NC(=O)[C@H](CCCNC(=N)N)NC(=O)CNC(=O)[C@H](CC(C)C)NC(=O)[C@H](Cc1ccccc1)NC(=O)[C@H](CCCCN)NC(=O)[C@H](CO)NC(=O)[C@H](Cc1ccccc1)NC(=O)[C@H](Cc1c[nH]c2ccccc12)NC(=O)[C@H](CCC(N)=O)NC(=O)[C@@H]1C[C@H](F)CN1C(=O)[C@@H](NC(=O)[C@@H](N)Cc1ccccc1)C(C)C)C(=O)N[C@@H](CC(C)C)C(N)=O (H-FV[Pro(cis-4-F)]QWFSKFLGRIL-NH2) |  |  |  |  |  |  |  |  |  | MIC (Escherichia coli): 12.5 µM (≈ 21.9 µg/mL); MIC (Priestia megaterium): 3.12 µM (≈ 5.48 µg/mL); MIC [2]: 3.12 µM (≈ 5.48 µg/mL); MIC (Pseudomonas aeruginosa): 12.5 µM (≈ 21.9 µg/mL); MIC (Candida albicans): 12.5 µM (≈ 21.9 µg/mL) |
| CC[C@H](C)[C@H](NC(=O)[C@H](CCCNC(=N)N)NC(=O)CNC(=O)[C@H](CC(C)C)NC(=O)[C@H](Cc1ccccc1)NC(=O)[C@H](CCCCN)NC(=O)[C@H](CO)NC(=O)[C@H](Cc1ccccc1)NC(=O)[C@H](Cc1c[nH]c2ccccc12)NC(=O)[C@H](CCC(N)=O)NC(=O)[C@@H]1C[C@H](N)CN1C(=O)[C@@H](NC(=O)[C@@H](N)Cc1ccccc1)C(C)C)C(=O)N[C@@H](CC(C)C)C(N)=O (H-FV[Pro(4S-NH2)]QWFSKFLGRIL-NH2) |  |  |  |  |  |  |  |  |  | MIC (Escherichia coli): 3.12 µM (≈ 5.47 µg/mL); MIC (Priestia megaterium): 3.12 µM (≈ 5.47 µg/mL); MIC [2]: 3.12 µM (≈ 5.47 µg/mL); MIC (Pseudomonas aeruginosa): 3.12 µM (≈ 5.47 µg/mL); MIC (Candida albicans): 12.5 µM (≈ 21.9 µg/mL) |
| CC[C@H](C)[C@H](NC(=O)[C@H](CCCNC(=N)N)NC(=O)CNC(=O)[C@H](CC(C)C)NC(=O)[C@H](Cc1ccccc1)NC(=O)[C@H](CCCCN)NC(=O)[C@H](CO)NC(=O)[C@H](Cc1ccccc1)NC(=O)[C@H](Cc1c[nH]c2ccccc12)NC(=O)[C@H](CCC(N)=O)NC(=O)[C@@H]1C[C@H](Oc2ccccc2)CN1C(=O)[C@@H](NC(=O)[C@@H](N)Cc1ccccc1)C(C)C)C(=O)N[C@@H](CC(C)C)C(N)=O (H-FV[Pro(cis-4-OPh)]QWFSKFLGRIL-NH2) |  |  |  |  |  |  |  |  |  | MIC (Escherichia coli): 25 µM (≈ 45.7 µg/mL); MIC (Priestia megaterium): 3.12 µM (≈ 5.71 µg/mL); MIC [2]: 3.12 µM (≈ 5.71 µg/mL); MIC (Pseudomonas aeruginosa): 50 µM (≈ 91.5 µg/mL); MIC (Candida albicans): 12.5 µM (≈ 22.9 µg/mL) |
| CCN(CC)CC#CCSc1nc(SCC#CCN(CC)CC)c2c(ncn2C)n1 | 48.9 µM | 38.5 µM | 5.95 µM | 23.9 µM |  |  |  |  |  |  |
| Cn1c(SCC#CCN2CCOCC2)nc2nc(Cl)nc(SCC#CCN3CCOCC3)c21 | 26.1 µM | 74 µM | 36.4 µM | 4.08 µM |  |  |  |  |  |  |
| Cn1c(SCC#CCN2CCCCC2)nc2nc(Cl)nc(SCC#CCN3CCCCC3)c21 | 11.6 µM | 38.1 µM | 5.5 µM | 19.1 µM |  |  |  |  |  |  |
| Clc1ccc(-c2cc(Nc3ccnc4cc(Cl)ccc34)ccc2CN2CCCC2)cc1 |  |  |  |  | 42.4 µM | 32.7 µM | > 200 µM | 32 µM | > 200 µM |  |
| Clc1ccc(-c2cc(Nc3ccnc4cc(Cl)ccc34)ccc2CN2CCCCC2)cc1 |  |  |  |  | > 200 µM | 2.98 µM | > 200 µM | > 200 µM | > 200 µM |  |
| Clc1ccc(-c2cc(Nc3ccnc4cc(Cl)ccc34)ccc2CN2CCOCC2)cc1 |  |  |  |  | 11.7 µM | 2.98 µM | > 200 µM | > 200 µM | 170 µM |  |
| CC(C)(C)NCc1ccc(Nc2ccnc3cc(Cl)ccc23)cc1 |  |  |  |  | 149 µM | 37.3 µM | 197 µM | 36 µM | > 250 µM |  |
| Cn1c(SCC#CCN2CCOCC2)nc2c1c(=O)[nH]c(=O)n2C | 1.39 µM | 6.54 µM | 5.87 µM | 22.7 µM |  |  |  |  |  |  |
| Cn1cnc2nc(SCC#CCN3CCCCC3)nc(SCC#CCN3CCCCC3)c21 | 4.64 µM | 7.35 µM | 3.98 µM | 6.39 µM |  |  |  |  |  |  |
| Clc1ccc2c(Nc3ccc(CN4CCCC4)c(-c4ccccc4)c3)ccnc2c1 |  |  |  |  | 44 µM | 0.009 µM | 4.38 µM | < 1 µM | 7.99 µM |  |
| Clc1ccc2c(Nc3ccc(CN4CCOCC4)cc3)ccnc2c1 |  |  |  |  | 11.7 µM | 6.16 µM | > 250 µM | < 1 µM | 69.5 µM |  |
| H-FVPQWFSKFLGRIL-NH2 |  |  |  |  |  |  |  |  |  | MIC (Escherichia coli): 12.5 µM; MIC (Priestia megaterium): 3.12 µM; MIC [2]: 3.12 µM; MIC (Pseudomonas aeruginosa): 25 µM; MIC (Candida albicans): 12.5 µM |
| CC[C@H](C)[C@H](NC(=O)[C@H](CCCNC(=N)N)NC(=O)CNC(=O)[C@H](CC(C)C)NC(=O)[C@H](Cc1ccccc1)NC(=O)[C@H](CCCCN)NC(=O)[C@H](CO)NC(=O)[C@H](Cc1ccccc1)NC(=O)[C@H](Cc1c[nH]c2ccccc12)NC(=O)[C@H](CCC(N)=O)NC(=O)[C@@H]1C[C@H](C(F)(F)F)CN1C(=O)[C@@H](NC(=O)[C@@H](N)Cc1ccccc1)C(C)C)C(=O)N[C@@H](CC(C)C)C(N)=O (H-FV[Pro(cis-4-CF3)]QWFSKFLGRIL-NH2) |  |  |  |  |  |  |  |  |  | MIC (Escherichia coli): 12.5 µM (≈ 22.6 µg/mL); MIC (Priestia megaterium): 3.12 µM (≈ 5.63 µg/mL); MIC [2]: 3.12 µM (≈ 5.63 µg/mL); MIC (Pseudomonas aeruginosa): 25 µM (≈ 45.1 µg/mL); MIC (Candida albicans): 12.5 µM (≈ 22.6 µg/mL) |
